Experimental data reported in PubChem BioAssay (NCI).
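Interpolation was linear, between the two tested concentrations surrounding the appropriate level; five concentrations were tested over 48 hours in 96-well plates. Here, GI50 denotes the concentration required for 50% inhibition of growth. TGI: concentration producing complete growth inhibition.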

What was measured:
Experiment in all cases: DTP human tumour cell line panel, 48 h
COLO 205 colon = test system: COLO 205 colon
HS 578T breast = test system: HS 578T breast
K-562 leukemia = test system: K-562 leukemia
MDA-MB-435 = test system: MDA-MB-435
OVCAR-3 ovarian = test system: OVCAR-3 ovarian
RPMI-8226 leukemia = test system: RPMI-8226 leukemia
SF-295 CNS = test system: SF-295 CNS
SK-MEL-2 melanoma = test system: SK-MEL-2 melanoma
SK-OV-3 ovarian = test system: SK-OV-3 ovarian
UACC-62 melanoma = test system: UACC-62 melanoma

| Structure (SMILES) | GI50 (COLO 205 colon) | TGI (COLO 205 colon) | GI50 (HS 578T breast) | TGI (HS 578T breast) | GI50 (K-562 leukemia) | TGI (K-562 leukemia) | GI50 (MDA-MB-435) | TGI (MDA-MB-435) | GI50 (OVCAR-3 ovarian) | TGI (OVCAR-3 ovarian) | GI50 (RPMI-8226 leukemia) | TGI (RPMI-8226 leukemia) | GI50 (SF-295 CNS) | TGI (SF-295 CNS) | GI50 (SK-MEL-2 melanoma) | TGI (SK-MEL-2 melanoma) | GI50 (SK-OV-3 ovarian) | TGI (SK-OV-3 ovarian) | GI50 (UACC-62 melanoma) | TGI (UACC-62 melanoma) |
| --- | --- | --- | --- | --- | --- | --- | --- | --- | --- | --- | --- | --- | --- | --- | --- | --- | --- | --- | --- | --- |
| O=C(NO)c1ccc(Cn2c(=O)n(-c3ccccc3)c(=O)c3ccccc32)cc1 | 356 nM | 1.39 µM | 1600 nM | 9.43 µM | 942 nM | > 100 µM | 531 nM | 1.77 µM | 1580 nM | 7.87 µM | 689 nM | 93.5 µM | 1380 nM | 2.98 µM | 1220 nM | 3.34 µM | 1.3 µM | 3.17 µM | 482 nM | 2.16 µM |
| CN(C)CC1CCCCCC(Br)C1=O (centres undefined) | – | 31.6 µM | – | 61.5 µM | – | > 100 µM | – | 34.1 µM | – | 21.6 µM | – | 3.96 µM | – | > 100 µM | – | 54.4 µM | – | > 100 µM | – | 44 µM |
| CCCCCCCCCCCC1=NC(C)(C)CN1CC(C)O (centres undefined) | 1680 nM | 3.05 µM | 2600 nM | 17.3 µM | 1620 nM | 3.33 µM | 2050 nM | 4.91 µM | 3350 nM | 12.7 µM | 1580 nM | 4.18 µM | 4360 nM | 17.8 µM | 2410 nM | 6.12 µM | 12.4 µM | 24.8 µM | 1780 nM | 3.47 µM |
| CC(C)C[CH2][Ge]([CH2]CC(C)C)([CH2]CC(C)C)[CH2]CC(C)C | > 100000 nM | > 100 µM | > 100000 nM | > 100 µM | > 100000 nM | > 100 µM | > 100000 nM | > 100 µM | > 100000 nM | > 100 µM | > 100000 nM | > 100 µM | > 100000 nM | > 100 µM | > 100000 nM | > 100 µM | > 100 µM | > 100 µM | > 100000 nM | > 100 µM |
| O=C(Nc1ccc(Oc2ccc(NC(=O)Nc3ccc([N+](=O)[O-])cc3)cc2)cc1)Nc1ccc([N+](=O)[O-])cc1 | 1630 nM | 3.22 µM | 2340 nM | 7.98 µM | 826 nM | – | 2160 nM | 8.65 µM | 2120 nM | > 30.3 µM | 303 nM | 1.84 µM | 1170 nM | 17.9 µM | 2030 nM | 4.29 µM | 2.27 µM | 7.51 µM | 1360 nM | 11.1 µM |
| Nc1nc(-c2ccc(Cl)cc2)cc(-c2ccc(Cl)cc2)c1-c1nc2ccccc2o1 | 21000 nM | 39.5 µM | 23500 nM | 53.1 µM | 13700 nM | 52.3 µM | 18300 nM | 36.1 µM | 18600 nM | 35.5 µM | 13700 nM | 28.3 µM | 21700 nM | 40.3 µM | 16600 nM | 33.4 µM | 22.4 µM | 41 µM | 18900 nM | 34.2 µM |
| Cc1cn([C@H]2C[C@H](O)[C@@H](CO)O2)c(=O)nc1N | – | > 100 µM | – | > 100 µM | – | > 100 µM | – | > 100 µM | – | > 100 µM | – | > 100 µM | – | > 100 µM | – | > 100 µM | – | > 100 µM | – | > 100 µM |
| COc1ccc2c(c1)C(=O)c1c-2c(N2CCN(C(=O)CNCCN(C)C)CC2)nc2ccccc12 | 1650 nM | 3.2 µM | 2670 nM | 9.87 µM | 720 nM | > 100 µM | 2380 nM | 4.98 µM | 2010 nM | 5.76 µM | 1670 nM | 3.84 µM | 2480 nM | 5.34 µM | 2070 nM | 3.83 µM | 14 µM | 27.5 µM | 2160 nM | 3.69 µM |
| O=C1CCSC(=S)N1c1ccc(Br)c(Cl)c1 | – | 41.2 µM | – | > 100 µM | – | > 100 µM | – | 65.7 µM | – | > 100 µM | – | > 100 µM | – | 73.1 µM | – | 58.2 µM | – | 91.5 µM | – | 58.7 µM |
| O=C1/C(=C/c2ccc(Cl)c(Cl)c2)CNC/C1=C\c1ccc(Cl)c(Cl)c1 | – | 17.3 µM | – | 19.3 µM | – | 19.5 µM | – | 43.7 µM | – | 7.54 µM | – | > 49.8 µM | – | 76.6 µM | – | 49.3 µM | – | 69.6 µM | – | 29.1 µM |
| CCOC(=O)c1ccc(N(C=O)CCC(=O)CCl)cc1 | 315 nM | 0.838 µM | 311 nM | 2.89 µM | 35.3 nM | > 69.3 µM | 90.8 nM | 0.37 µM | 399 nM | 1.35 µM | 130 nM | 2.83 µM | 1200 nM | 13 µM | 465 nM | 2.14 µM | 1.41 µM | 13.2 µM | 524 nM | 3.69 µM |
| O=C(c1nn(-c2ccc(Cl)cc2)cc1O)n1nc(C(F)(F)F)cc1-c1ccccc1 | 2970 nM | > 44.2 µM | 556 nM | > 100 µM | 1720 nM | > 100 µM | 3380 nM | > 100 µM | 2250 nM | > 100 µM | 1910 nM | > 85.3 µM | 478 nM | > 65.6 µM | 38200 nM | > 100 µM | 2.53 µM | > 100 µM | 2120 nM | > 71.1 µM |
| Cc1ccc(-c2cc(-c3ccc(C)cc3)nc(N3CCN(CCNc4ccnc5cc(Cl)ccc45)CC3)n2)cc1 | 1710 nM | 8.76 µM | 1410 nM | 4.56 µM | 2400 nM | > 50 µM | 1760 nM | 6.85 µM | 1290 nM | 3.26 µM | 3480 nM | > 50 µM | 5270 nM | 15.4 µM | 7890 nM | 20.3 µM | 5.49 µM | 14.2 µM | 5540 nM | 12.6 µM |
| CCCCCCCCCCC[C@@H](C[C@H]1OC(=O)[C@H]1CCCCCC)OC(=O)[C@@H](CC(C)C)NC=O | 11600 nM | 32.1 µM | 3810 nM | 40.8 µM | 4360 nM | 47.3 µM | 5770 nM | 60.3 µM | 3170 nM | 14.5 µM | 855 nM | 8.81 µM | 2080 nM | 10.6 µM | 6040 nM | 24.8 µM | 10.1 µM | 62.8 µM | 4950 nM | 25.2 µM |
